Reference: publication PMC10044120, “Potent and selective covalent inhibition of the papain-like protease from SARS-CoV-2” (Nature Communications, 2023)
Where two headings read alike, the source gives them in different places.

Columns and labels:
[1] = molecular target: T1, SARS-CoV-2 PLpro (Severe acute respiratory syndrome coronavirus 2, UniProt P0DTD1); assay: biochemical; settings: PLpro 10 nM, ISG15-CHOP2
[2] = test system: SARS-CoV-2 Delta (B.1.617.2); assay: microbe, parasite or virus in culture; type: cell-based; settings: Severe acute respiratory syndrome coronavirus 2; Delta (B1.617.2), Caco-2
[3] = molecular target: T2, USP2 (Homo sapiens, UniProt O75604); assay: biochemical; settings: USP2 10 nM, Ub-rhodamine110
T2 construct: USP2c, USP4, USP7, USP8c, USP15, USP30WT, and UCH-L1; purchased LifeSensors, Inc. (Malvern, PA)

[4] = test system: SARS-CoV-2 Delta (B.1.617.2); assay: CPE assay, neutral red, Vero E6 cells with 2 μM CP-100356, Delta; type: cell-based; settings: Severe acute respiratory syndrome coronavirus 2, Vero C1008
[5] = test system: Caco-2 cells
[6] = molecular target: T3, USP7 (Homo sapiens, UniProt Q93009); assay: biochemical; settings: USP7 5 nM, Ub-CHOP2
T3 construct: purchased LifeSensors, Inc. (Malvern, PA)

[7] = in vitro; settings: African green monkey
[8] = Metabolic stability in human liver microsomes
[9] = in vitro; settings: human
[10] = molecular target: PLpro from SARS-CoV-2 (Severe acute respiratory syndrome coronavirus 2, UniProt P0DTD1); assay: biochemical; type: biochemical; parameters: mean (kobs plot, Supplementary Figure 6 II): unit: min^-1
[11] = molecular target: T1, SARS-CoV-2 PLpro; assay: biochemical; settings: PLpro 50 nM, Ub-rhodamine110
[12] = molecular target: full-length SARS-CoV-2 hemagglutinin (HA)-Nsp3 (Severe acute respiratory syndrome coronavirus 2, UniProt P0DTD1); assay: biochemical
[13] = test system: SARS-CoV-2 Omicron (B.1.1.529); assay: CPE assay, neutral red, Vero E6 cells with 2 μM CP-100356, Omicron; type: cell-based; settings: Severe acute respiratory syndrome coronavirus 2, Vero C1008
[14] = Metabolic stability in mouse liver microsomes; settings: CD-1, mouse
[15] = test system: SARS-CoV-2 Omicron (B.1.1.529); assay: microbe, parasite or virus in culture; type: cell-based; settings: Severe acute respiratory syndrome coronavirus 2; Omicron (B1.1.529), Caco-2
[16] = Pharmacokinetics in male ICR mice (IV and PO)
[17] = molecular target: T4, UCHL1 (Homo sapiens, UniProt P09936); assay: biochemical; settings: UCHL1 10 nM, Ub-rhodamine110
T4 construct: purchased LifeSensors, Inc. (Malvern, PA)

[18] = test system: SARS-CoV-2 USA-WA1/2020; assay: CPE assay, neutral red, Vero E6 cells with 2 μM CP-100356, USA-WA1/2020; type: cell-based; settings: for Percent Cytopathic Effect (Neutral Red): USA-WA1/2020
[19] = test system: Vero E6 cells
[20] = male, ICR (CD-1), mouse, plasma, iv, 3 mg/kg

T2 sequence (O75604 267-599): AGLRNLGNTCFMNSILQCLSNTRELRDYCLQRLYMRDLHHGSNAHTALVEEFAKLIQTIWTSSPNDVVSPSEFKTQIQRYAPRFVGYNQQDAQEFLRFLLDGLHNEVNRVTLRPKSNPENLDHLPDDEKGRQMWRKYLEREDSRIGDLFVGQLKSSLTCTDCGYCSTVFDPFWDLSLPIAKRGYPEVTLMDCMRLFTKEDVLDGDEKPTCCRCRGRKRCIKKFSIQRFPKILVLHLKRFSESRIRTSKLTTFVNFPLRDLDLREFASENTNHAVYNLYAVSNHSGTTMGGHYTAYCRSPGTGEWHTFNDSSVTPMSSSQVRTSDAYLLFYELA
T3 sequence (Q93009 whole entry): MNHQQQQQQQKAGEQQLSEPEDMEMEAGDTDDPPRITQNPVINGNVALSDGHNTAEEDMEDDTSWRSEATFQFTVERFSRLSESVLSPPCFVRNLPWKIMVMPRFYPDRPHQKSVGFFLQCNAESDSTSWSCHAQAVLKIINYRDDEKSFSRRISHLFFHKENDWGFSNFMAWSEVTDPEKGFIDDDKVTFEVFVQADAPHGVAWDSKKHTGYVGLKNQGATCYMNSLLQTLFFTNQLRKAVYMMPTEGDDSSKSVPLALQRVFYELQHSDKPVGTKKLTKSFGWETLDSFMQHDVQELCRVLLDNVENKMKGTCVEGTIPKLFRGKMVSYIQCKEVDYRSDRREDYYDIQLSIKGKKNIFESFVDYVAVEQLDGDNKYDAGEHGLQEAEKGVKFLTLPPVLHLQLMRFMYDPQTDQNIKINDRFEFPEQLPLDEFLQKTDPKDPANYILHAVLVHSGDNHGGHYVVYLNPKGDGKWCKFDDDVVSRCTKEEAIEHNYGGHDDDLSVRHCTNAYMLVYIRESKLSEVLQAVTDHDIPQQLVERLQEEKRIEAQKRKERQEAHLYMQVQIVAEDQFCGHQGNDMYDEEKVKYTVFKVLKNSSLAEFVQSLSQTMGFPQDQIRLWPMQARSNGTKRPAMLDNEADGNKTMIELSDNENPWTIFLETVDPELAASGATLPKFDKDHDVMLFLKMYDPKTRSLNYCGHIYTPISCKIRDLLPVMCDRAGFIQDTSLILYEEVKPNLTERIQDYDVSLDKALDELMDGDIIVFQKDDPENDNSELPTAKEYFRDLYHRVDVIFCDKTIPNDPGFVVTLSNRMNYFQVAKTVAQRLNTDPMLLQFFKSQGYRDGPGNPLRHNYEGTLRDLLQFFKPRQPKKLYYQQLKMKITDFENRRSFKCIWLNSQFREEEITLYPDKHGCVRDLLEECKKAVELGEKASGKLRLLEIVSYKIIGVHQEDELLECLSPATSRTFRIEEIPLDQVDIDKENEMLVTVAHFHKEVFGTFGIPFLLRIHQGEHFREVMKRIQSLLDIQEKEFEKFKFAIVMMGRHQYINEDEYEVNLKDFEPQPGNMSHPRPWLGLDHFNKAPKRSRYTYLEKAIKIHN
T4 sequence (P09936 whole entry): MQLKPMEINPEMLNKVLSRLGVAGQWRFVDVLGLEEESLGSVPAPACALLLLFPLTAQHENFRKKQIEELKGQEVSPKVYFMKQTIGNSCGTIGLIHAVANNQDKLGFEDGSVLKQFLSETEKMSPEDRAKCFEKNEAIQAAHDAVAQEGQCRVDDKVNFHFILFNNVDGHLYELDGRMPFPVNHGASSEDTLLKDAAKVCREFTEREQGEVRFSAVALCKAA

`COC(=O)/C=C/C(=O)NNC(=O)CCc1ccccc1C(=O)N[C@H](C)c1cccc2ccccc12` [Compound 7, methyl(R,E)-4-(2-(3-(2-((1-(naphthalen-1 yl)ethyl)carbamoyl)phenyl)propanoyl)hydrazineyl)-4-oxobut-2-enoate] gave a Hill slope [1] of 1.34, an EC90 [2] of over 10 µM and an IC50 [3] of over 30 µM. It also gave an EC50 [4] of 0.29 µM, a CC50 ([5]; Caco-2, Delta rows) of over 10 µM and a CC50 ([5]; Caco-2, Omicron rows) of over 10 µM. The IC50 [6] was over 30 µM, the CC50 [7] was over 10 µM and the cytotoxicity at 0.01 µM [7] was 6.3%. It also gave a cytotoxicity at 0.1 µM [7] of 1.1%, a cytotoxicity at 1 µM [7] of 3.3% and a cytotoxicity at 10 µM [7] of 27.4%. It also gave a cytotoxicity at 0.01 µM ([7]; Percent Cytotoxicity (Neutral Red), Vero E6, SARS2-733 (Delta set), 0.01 µM) of 11.8%, a cytotoxicity at 0.1 µM ([7]; Percent Cytotoxicity (Neutral Red), Vero E6, SARS2-733 (Delta set), 0.1 µM) of 7.1% and a cytotoxicity at 1 µM ([7]; Percent Cytotoxicity (Neutral Red), Vero E6, SARS2-733 (Delta set), 1 µM) of 4.8%. For the same molecule, the cytotoxicity at 10 µM ([7]; Percent Cytotoxicity (Neutral Red), Vero E6, SARS2-733 (Delta set), 10 µM) was 9.3%, the cytotoxicity at 0.01 µM ([7]; Percent Cytotoxicity (Neutral Red), Vero E6, SARS2-735, 0.01 µM) was 0% and the cytotoxicity at 0.1 µM ([7]; Percent Cytotoxicity (Neutral Red), Vero E6, SARS2-735, 0.1 µM) was 0%. For the same molecule, the cytotoxicity at 1 µM ([7]; Percent Cytotoxicity (Neutral Red), Vero E6, SARS2-735, 1 µM) was 3.8%, the cytotoxicity at 10 µM ([7]; Percent Cytotoxicity (Neutral Red), Vero E6, SARS2-735, 10 µM) was 38.5% and the half-life [8] was 50 min. For the same molecule, the microsomal CLint [8] was 139 µL/min/mg, the CC50 [9] was over 10 µM and the cytotoxicity at 0.01 µM [9] was 8.4%. For the same molecule, the cytotoxicity at 0.1 µM [9] was 3.4%, the cytotoxicity at 1 µM [9] was 0.326% and the cytotoxicity at 10 µM [9] was 18.1%. The cytotoxicity at 0.01 µM ([9]; Percent Cytotoxicity (Neutral Red), Caco-2, SARS2-740 (Delta set), 0.01 µM) was 0%, the cytotoxicity at 0.1 µM ([9]; Percent Cytotoxicity (Neutral Red), Caco-2, SARS2-740 (Delta set), 0.1 µM) was 0% and the cytotoxicity at 1 µM ([9]; Percent Cytotoxicity (Neutral Red), Caco-2, SARS2-740 (Delta set), 1 µM) was 8%. For the same molecule, the cytotoxicity at 10 µM ([9]; Percent Cytotoxicity (Neutral Red), Caco-2, SARS2-740 (Delta set), 10 µM) was 4.4%, the cytotoxicity at 0.01 µM ([9]; Percent Cytotoxicity (Neutral Red), Caco-2, SARS2-740 (USA-WA1/2020 set), 0.01 µM) was 1.6% and the cytotoxicity at 0.1 µM ([9]; Percent Cytotoxicity (Neutral Red), Caco-2, SARS2-740 (USA-WA1/2020 set), 0.1 µM) was 0%. The cytotoxicity at 1 µM ([9]; Percent Cytotoxicity (Neutral Red), Caco-2, SARS2-740 (USA-WA1/2020 set), 1 µM) was 0%, the cytotoxicity at 10 µM ([9]; Percent Cytotoxicity (Neutral Red), Caco-2, SARS2-740 (USA-WA1/2020 set), 10 µM) was 39.6% and the “Kobs, mean” value ([10]; 0.10 uM) was 0.00424 min⁻¹. For the same molecule, the “Kobs, mean” value ([10]; 0.20 uM) was 0.03867 min⁻¹, the “Kobs, mean” value ([10]; 0.30 uM) was 0.09135 min⁻¹ and the remaining activity at 0.1 µM ([10]; 5 min, read-out: PLpro activity after preincubation, inhibitor 0.1 uM, preincubation 5 min) was 95.7%. For the same molecule, the remaining activity at 0.2 µM ([10]; 5 min, read-out: PLpro activity after preincubation, inhibitor 0.2 uM, preincubation 5 min) was 105%, the remaining activity at 0.3 µM ([10]; 10 min, read-out: PLpro activity after preincubation, inhibitor 0.3 uM, preincubation 10 min) was 30.7% and the remaining activity at 0.3 µM ([10]; 0.5 h, read-out: PLpro activity after preincubation, inhibitor 0.3 uM, preincubation 30 min) was 17.7%. The remaining activity at 0.1 µM ([10]; 1 h, read-out: PLpro activity after preincubation, inhibitor 0.1 uM, preincubation 60 min) was 74.1%, the remaining activity at 0.2 µM ([10]; 1 h, read-out: PLpro activity after preincubation, inhibitor 0.2 uM, preincubation 60 min) was 2.6% and the remaining activity at 0.1 µM ([10]; […], read-out: PLpro activity after preincubation, inhibitor 0.1 uM, preincubation 15 min) was 104%. For the same molecule, the remaining activity at 0.1 µM ([10]; […], read-out: PLpro activity after preincubation, inhibitor 0.1 uM, preincubation 45 min) was 75.3%, the remaining activity at 0.2 µM ([10]; […], read-out: PLpro activity after preincubation, inhibitor 0.2 uM, preincubation 15 min) was 59.4% and the remaining activity at 0.2 µM ([10]; […], read-out: PLpro activity after preincubation, inhibitor 0.2 uM, preincubation 90 min) was 0.514%. The remaining activity at 0.3 µM ([10]; […], read-out: PLpro activity after preincubation, inhibitor 0.3 uM, preincubation 15 min) was 26.7%, the “Time dep. (time-dependent inhibition)” value ([10]; fluorogenic peptide assay, varied preincubation time) was “Yes” and the “mean (kobs plot, Supplementary Figure 6 II)” value ([10]; inhibitor 0.10 uM) was 0.00424. The “mean (kobs plot, Supplementary Figure 6 II)” value ([10]; inhibitor 0.20 uM) was 0.03867, the “mean (kobs plot, Supplementary Figure 6 II)” value ([10]; inhibitor 0.30 uM) was 0.09135 and the Hill slope [11] was 1.06. For the same molecule, the inhibition at 0.003 µM ([12]; 0.003 uM, read-out: Percent Nsp3 inhibition) was -4%, the “Percent Nsp3 inhibition” value ([12]; 1.852 uM) was 84.0% and the inhibition at 1.852 µM ([12]; 1.852 uM, read-out: Percent Nsp3 inhibition) was 83.9%. For the same molecule, the “Percent Nsp3 inhibition” value ([12]; 50.000 uM) was 89.9%, the inhibition at 50 µM ([12]; 50.000 uM, read-out: Percent Nsp3 inhibition) was 90.7% and the EC50 [13] was 0.68 µM. The half-life [14] was 13 min, the microsomal CLint [14] was 540 µL/min/mg and the EC90 [15] was 2.4 µM. For the same molecule, the “oral bioavailability / exposure following PO dosing” value ([16]; 10 mg/kg p.o., male ICR mice) was “not orally bioavailable”, the AUC(0-inf) [16, 20] was 5 ng·h/mL and the AUC(0-t) [16, 20] was 4 ng·h/mL. It also gave a C0 [16, 20] of 63 ng/mL, a Vd [16, 20] of 35.2 L/kg and a half-life [16, 20] of 3.6 min. The IC50 [17] was over 30 µM, the EC50 ([18]; Severe acute respiratory syndrome coronavirus 2, Vero C1008) was 0.068 µM and the “Percent Cytopathic Effect (Neutral Red)” value ([18]; 0.01 µM) was 90.5%. For the same molecule, the “Percent Cytopathic Effect (Neutral Red)” value ([18]; 0.1 µM) was 41.8%, the “Percent Cytopathic Effect (Neutral Red)” value ([18]; 1 µM) was 46.4% and the “Percent Cytopathic Effect (Neutral Red)” value ([18]; 10 µM) was 13.5%. For the same molecule, the CC50 ([19]; Vero E6, 2 μM CP-100356, Delta rows) was over 10 µM and the CC50 ([19]; Vero E6, 2 μM CP-100356, Omicron rows) was over 10 µM.
